Assay results: patent publication US20250000083A1, “CRYOPRESERVATION PREPARATION FOR CORNEAL ENDOTHELIAL CELLS AND METHOD FOR PRODUCING SAID CRYOPRESERVATION PREPARATION” (THE DOSHISHA, priority 2021, published 2025)

Legend:
[1] = tested on: Human corneal endothelial cells; assay: Adhesion of thawed cells cultured in medium with addition of DMSO (phase contrast microscopy), Example 3; type: cell-based
Method: (§1) • 1. Collect cells in the same manner as in Example 2 (Steps 1 to 10) and preserve the cells in cryotubes using Cryostor CS2. • 2. Freeze in a programmable freezer from 4° C. to −80° C. at −0.5° C./min. 3. Transfer to a Bicell processing housing previously cooled at −80° C. when a temperature was decreased to −80° C. and cryopreserve the Bicell in a freezer at −80° C. for 3 days. • 4. After 3 days of cryopreservation, thaw the cryotubes in which the cells were preserved in a water bath at 37° C. for 1 to 2 minutes. • 5. Collect the cells in a medium warmed to 37° C. in advance, and measure the number of cells collected and cell viability by trypan blue staining. • 6. Dispense the collected cells into four 15 mL STEMFULLS and centrifuge at 300 G for 5 minutes. • 7. After centrifugation, remove a supernatant, adjust a cell density to 1000 cells/mm^2 using media containing 10%, 5%, 2%, and 0% DMSO, and reseed in 12-well plates. • 8. Photograph the cells under a phase contrast microscope at 1 h, 3 h, 6 h, and 24 h after seeding. • 9. After taking photographs of the cells at each time point, collect all cells in the container, including floating cells, and determine cell viability by trypan blue staining.

[2] = tested on: Human corneal endothelial cells; assay: Viability of cells reseeded in medium with DMSO and collected (trypan blue), Example 3; type: cell-based; settings: medium containing 10% DMSO
Method: as §1

- cell adhesion ([1]; 5% DMSO, after 1 hour): almost no adherent cells
- cell adhesion ([1]; 5% DMSO, after 24 hours): almost no adherent cells
- cell adhesion ([1]; 10% DMSO, until 24 hours after seeding): no cells were adherent
- adhesion rate compared with medium without DMSO ([1]; medium containing 2% DMSO): not different
- number of cells compared with medium without DMSO ([1]; medium supplemented with 5% DMSO): significantly lower
- number of cells compared with medium without DMSO ([1]; medium supplemented with 10% DMSO): significantly lower
SMILES: C[S+](C)[O-] [DMSO, dimethyl sulfoxide]
- cell adhesion ([1]; 5% DMSO, after 3 and 6 hours): less than half of the cells were adherent
- viability of cells after reseeded and collected ([2]; at 1 hour): no decrease in viability
- viability of cells after reseeded and collected ([2]; subsequent to 1 hour): decrease in viability
